Experimental data as given in US6541463B1, “Inhibitors of type 5 and type 3 17β-hydroxysteroid dehydrogenase and methods for their use” (Endorecherche, Inc., priority 1998, dated 2003).

Experiments:
[1] = tested on: Shionogi mouse mammary carcinoma cells; test: Androgenic activity: stimulation of proliferation of Shionogi cells; assay type: cell-based
Description: In column 9, the androgenic activity of preferred type 5 inhibitors expressed as the percentage of stimulation of proliferation of Shionogi cells at concentrations of 10^−7 M (left number) and 10^−6 M (right number) of inhibitor. The manner in which the stimulation is determined is described in “Other Tests; B-Androgenic/Antiandrogenic Activity”. Lower numbers are desirable. ND means that a determination was not done.
(§1) Androgenic/antiandrogenic activity of some preferred compounds has been measured using the Shionogi mouse mammary carcinoma cells.
(§2) Minimal essential culture medium (MEM), non-essential amino acids, and fetal calf serum were purchased from Flow Laboratories. In order to remove endogenous steroids, serum was incubated overnight at 4° C. with 1% activated charcoal (Norit A, Fisher) and 0.1% Dextran T-70 (Pharmacia). A 2-h supplementary adsorption was performed at 25° C. in order to further remove protein-bound steroids. Serum was also inactivated by a 20-min incubation at 56° C.
(§3) 5α-dihydrotestosterone (DHT) was obtained from Steraloids. The antiandrogen hydroxyflutamide (OH-FLU) was kindly supplied by Drs. T. L. Nagabuschan and R. Neri (Schering Corporation, Kenilworth, U.S.A.).
(§4) Shionogi male mice bearing androgen-sensitive mammary tumors were obtained from Drs. Keishi Matsumoto, Osaka, Japan, and Yvonne Lefebvre, Ottawa, Canada. For primary culture, tumors were excised and washed in ice-cold sterile 25 mM Hepes buffer (137 mM NaCl; 5 mM KCl; 0.7 mM Na2HPO4; 10 mM glucose, pH 7.2). After mincing with scissors, the tumor minces were digested for 2 h at 37° C. in Hepes buffer containing 3.8 mg/ml collagenase (Clostridium, Boehringer), 1.5 mg/ml hyaluronidase II (Sigma), and 3% bovine serum albumin fraction V (Schwartz-Mann). Dispersed cells were collected by centrifugation (500×g for 10 min), washed twice by suspension in minimal essential medium (MEM) containing 5% dextran-coated charcoal-treated fetal calf serum (DCC-FCS), 1% non-essential amino acids, 10 IU/ml penicillin, 50 μg/ml streptomycin, and 100 nM dihydrotestosterone (DHT) (Steraloids).
(§5) Cells were plated in the same medium at a density of 75 000 cells/ml in 75 cm^2 flasks under an atmosphere of 5% carbon dioxide in air at 37° C. The medium was changed weekly. The steroids and antisteroids were dissolved in ethanol and kept in stock solutions chosen to yield final ethanol concentrations less than 0.01% in the culture medium.
(§6) Cells were subcultured at near-confidence by gentle digestion in a solution of 0.1% pancreatin (Flow Laboratories) in Hepes buffer containing 3 mM ethylenediaminetetraacetic acid (EDTA) (pH 7.2). Cells were pelleted by centrifugation, resuspended in culture medium, counted in a Coulter counter, and replated as described above. Soft agar cloning was performed as described (Stanley et al., Cell 10: 35-44, 1977) in the presence of 100 nM DHT.
(§7) Cells were plated in 24-well plates at a density of 20 000 cells/well. The indicated increasing concentrations of agents were added to triplicate dishes, and cells were grown for 10-12 days with changes of medium every 3-4 days. Cell number was measured by direct counting in a Coulter counter.
(§8) ED50 values of action of DHT and glucocorticoids were calculated according to a least-square regression as described (Rodbard, Endocrinology 94: 1427-1431, 1974). Statistical significance was calculated according to a multiple-range test (Kramer, Biometrics 12: 307-310,1956).

[2] = target: T1, human type 5 17β-hydroxysteroid dehydrogenase (Homo sapiens, UniProt P42330); test: Inhibition of human type 5 17β-HSD activity in transfected 293 cells; assay type: cell-based; set-up: Inhibition Type V 17B-HSD % Inh. At 3 · 10^−7 (second value in parentheses): concentration or dose not given beside the values
T1 construct: screen again a human placental λgt11 cDNA to get the full length cDNA clone; expressed in transfected cells; host or cells: human embryonal kidney 293 cells (pCMV / pCMV-neo vector)
T1 sequence (P42330 1-323): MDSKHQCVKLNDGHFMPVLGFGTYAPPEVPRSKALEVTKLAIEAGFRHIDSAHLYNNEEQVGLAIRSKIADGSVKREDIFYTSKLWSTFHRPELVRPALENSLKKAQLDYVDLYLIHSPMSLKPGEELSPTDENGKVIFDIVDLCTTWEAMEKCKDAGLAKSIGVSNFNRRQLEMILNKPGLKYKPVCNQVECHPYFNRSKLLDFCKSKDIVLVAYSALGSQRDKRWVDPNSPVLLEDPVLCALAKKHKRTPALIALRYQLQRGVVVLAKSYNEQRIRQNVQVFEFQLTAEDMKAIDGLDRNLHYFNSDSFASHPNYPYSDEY
Description: The manner in which IC50 was determined is described in “Efficacy of the Preferred Inhibitors”. Lower numbers for IC50 are desirable.
Using a oligoprimer pair (5′-GGA-AAT-CGT-GAC-AGG-GAA-TGG-ATT-CCA-AAC-AG-3′, 5′-GGA-ATT-CTT-TAT-TGT-ATT-TCT-GGC-CTA-TGG-AGT-GAG-3′) derived from human aldoketoreductase (Qin et al., J. Steroid Biochem. Molec. Biol. 46: 673-679, 1993) and polymerase chain reaction (PCR), we have amplified from a human placental λgt11 cDNA library (Clontech Laboratories Inc., Palo Alto, Calif.) a cDNA fragment that was used as probe to screen again a human placental λgt11 cDNA to get the full length cDNA clone. The amplified cDNA fragment was purified on agarose gel and labeled with [α^32P]dCTP (Amersham Corp.) using the random primer labeling kit from Pharmacia Inc. PCR amplification reaction medium contained 50 mM KCl, 10 mM Tris-HCl, pH 8.3, 0.1% gelatin, 1 mM MgCl2, 250 μM dNTP, 0.25 μM oligonucleotide primers, and 200 ng of DNA prepared from human placental λgt11 cDNA library. The aqueous phase was overlaid with 75 μL of mineral oil to avoid evaporation. The mixture was heated at 98° C. for 5 min, following the temperature reduction to 72° C., 1 unit of Taq DNA polymerase was added. Using a DNA Thermal Cycler (Perkin-Elmer Corp.), 30 cycles of amplification were carried out using a step program (94° C., 1 min; 60° C., 1 min; and 72° C., 1 min)/cycle.
Approximately 5×10^5 recombinant phage plaques were screened with 1.5×10^6 cpm/ml of the probe. Prehybridization was performed for 4 h at 42° C. in 50% formamide, 5× Denhardt's solution (1× Denhardt's being 0.02% polyvinyl pyrrolidone, 0.02 Ficoll, 0.02 bovine serum albumin), 5×SSPE (1×SSPE being 0.18M NaCl, 10 mM NaH2PO4, pH 7.4, 1 mM EDTA), 0.1% SDS, and 100 μg/ml yeast tRNA. The probe was denatured by heating at 100° C. for 5 min, before being added to the hybridization solution at 42° C. overnight. Filters were then washed twice at room temperature in 2×SSC (1×SSC being […], pH 7.0), 0.1% SDS, and twice in 0.1×SSC, 0.1% SDS at 60° C. Positive recombinant plaques were purified by replating twice and grown in liquid culture. Phage DNA were isolated by centrifugation for 90 min at 105,000×g, and DNA was then isolated by phenol extraction and precipitation with isopropanol (Karen et al. 1987; In: Current Protocols in Molecular Biology (F. M. Ausubel, R. Brent, E. Kingston, D. D. Moore, T. G. Seidman, T. A. Smith and K. Struhl, eds), Wiley & Sons, New York, pp. 1.13.1-1.13.6).
The phage DNA were digested with EcoRI restriction enzymes and the resulting cDNA fragments were inserted into the EcoRI site downstream to the cytomegalovirus (CMV) promoter of the pCMV vector (kindly provided by Dr. Matthew, Cold Spring Harbor, N.Y., USA). Recombinant pCMV plasmids were amplified in Escherichia Coli DH5α competent cells, and were isolated by alkaline lysis procedure (Maniatis et al., In: Molecular cloning: a laboratory manual, Cold Spring Harbor Laboratory., 1982). Sequencing of double-stranded plasmid DNA was performed according to the dideoxy chain termination method (Sanger et al., PNAS 74: 5453-5467, 1977) using a T7 DNA polymerase sequencing kit (Pharmacia LKB Biotechnology). To avoid errors, all sequences were determined by sequencing both strands of the DNA. Oligonucleotide primers were synthesized in our laboratory with a 394 DNA/RNA synthesizer (Applied Biosystem).
The pCMV vector contain 576 nucleotides of the pCMV promoter (followed by 432 bp of small t intron (fragment 4713-4570) and poly adenylation signal (2825-2536)of SV40, followed by 1989 bp of the Pvu II(628)-AatII (2617) fragment from pUC 19 vector (New England Biolabs) that contains an E. Coli origin of replication and an ampicillin resistance gene for propagation in E. Coli. […]

[3] = tested on: Shionogi mouse mammary carcinoma cells; test: Antiandrogenic activity: inhibition of DHT-induced proliferation of Shionogi cells; assay type: cell-based; settings: Table 4′, DHT-induced proliferation
Description: The manner in which the inhibition is determined is described in “Other Tests; B-Androgenic/Antiandrogenic Activity”. Lower numbers are desirable. ND means that a determination was not done.
as §1, §2, §3, §4, §5, §6, §7, §8

[4] = target: T2, human type 2 17β-hydroxysteroid dehydrogenase (Homo sapiens, UniProt P37059); test: Enzymatic assay for type 2 17β-HSD; assay type: biochemical; settings: Table 4′; bracketed values, 3 · 10^−8M
T2 construct: expressed in transfected cells; host or cells: 293 cells, transient transfection; microsomal fraction (100 000×g pellet)
T2 sequence (P37059 1-387): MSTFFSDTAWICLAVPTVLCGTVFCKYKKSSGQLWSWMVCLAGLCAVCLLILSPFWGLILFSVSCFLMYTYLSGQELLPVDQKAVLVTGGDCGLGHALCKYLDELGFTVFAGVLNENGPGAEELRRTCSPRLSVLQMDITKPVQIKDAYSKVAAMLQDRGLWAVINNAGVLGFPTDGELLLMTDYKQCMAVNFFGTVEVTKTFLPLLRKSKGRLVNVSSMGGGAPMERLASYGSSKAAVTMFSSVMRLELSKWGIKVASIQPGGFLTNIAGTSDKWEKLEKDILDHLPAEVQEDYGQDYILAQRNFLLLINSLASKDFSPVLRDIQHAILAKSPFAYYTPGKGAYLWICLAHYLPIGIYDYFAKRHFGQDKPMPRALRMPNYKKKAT
Description: The manner in which IC50 was determined is described in “Efficacy of Preferred Inhibitors: VI. Enzymatic assay for types 1, 2, and 3 17β-HSD and types 1 and 3 3α-HSD”. […] numbers of IC50 are desirable. Blank means that a determination was not done. […]
Enzyme sources. 293 cells transiently transfected with expression vectors encoding types 1, 2 and 3 17β-HSD (Luu-The et al., J. Steroid Biochem. Molec. Biol., 55: 581-587, 1995), types 1 and 2 5α-reductase (Luu-The et al., J. Invest. Dermatol., 102: 221-226, 1994) and types 1 and 3 3α-HSD (Dufort et al. Biochem. Biophys. Res. Commun. 228: 474-479, 1996), using the calcium phosphate procedure (Kingston et al., In: Current Protocols in Molecular Biology. Edited by E. M. Ausbel, R. Brent, R. E. Kingston, D. D. Moore, J. G. Seidman, J. A. Smith, K. Struhl. John Wiley & Sons, New York, pp. 9.1.1-9.1.9, 1991; Luu-The et al., J. Invest. Dermatol., 102: 221-226, 1994). For assays using cell subfractions, cells were sonicated in 50 mM sodium phosphate buffer (pH 7.4), containing 20% glycerol and 1 mM EDTA and centrifuged at 10 000×g for 30 min before centrifugation for 100 000×g for 1 h to separate the mitochondrial and microsomal fractions, respectively. The cytosol fractions (100 000×g supernatant) was used to determine type 1 activity while the microsomal fraction (pellet at 100 000×g) was used for measurement of types 2 and 3 17β-HSD activities.
Incubation. The enzymatic reaction was carried out at 37° C. in 1 ml of 50 mM sodium phosphate buffer, pH 7.4, containing 20% glycerol, 1 mM EDTA, and 2 mM cofactors (NADPH or AND^+) for 1 h in the presence of 0.1 μM ^14C-labeled substrate: estrone and 4-dione for types 1 and […] 17β-HSD, respectively, testosterone for type 2 17β-HSD as well as types 1 and 2 5α-reductases, DHT for types 1 and 3 3α-HSD activities, and the indicated concentration of inhibitor.
Extraction of metabolites, migration on TLC and quantification were as described above for the assay of type 5 17β-HSD.

SMILES: CCCCCO[C@]1(C(C)=O)CC[C@H]2[C@@H]3C=C(C)C4=CC(=O)CC[C@]4(C)[C@H]3CC[C@@]21C [EM-1127, 6-Methyl-17α-pentyloxy-4,6-pregnadien-3,20-dione]
- Androgenic Activity Shionogi, Basal ([1]; E^−6): 92
- Androgenic Activity Shionogi, Basal ([1]; E^−7): 85
- Inhibition Type V 17β-HSD % Inh. ([2]; at 3.10^−6): 91) %
- Inhibition Type V 17β-HSD % Inh. ([2]; at 3.10^−7): (71%

SMILES: CCC1(CC)CC[C@@]2(CC[C@H]3[C@@H]4CCc5cc(O)ccc5[C@H]4CC[C@@]32C)OC1=O [EM-1416, 1,3,5(10)-Estratrien-3-ol-17(R)-spiro-2′-(5′,5′-diethyl-6′-oxo)tetrahydropyran]
- Antiandrogenic Activity Shionogi, DHT E^−6 ([3]; E^−6 (10^−6 M)): −41%
- Antiandrogenic Activity Shionogi, DHT E^−7 ([3]; E^−7): 26%
- Inhibition Type 2 17β-HSD Activity [% Inh. at 3 · 10^−8M] [4]: [76] %
- Androgenic Activity Shionogi, Basal E^−6 ([1]; Table 4′, E^−6): −4%
- Androgenic Activity Shionogi, Basal E^−7 ([1]; Table 4′, E^−7): 28%

SMILES: CC(=O)O[C@]1(C(C)=O)CC[C@H]2[C@@H]3C[C@H](C)C4=CC(=O)CC[C@]4(C)[C@H]3CC[C@@]21C [Medroxyprogesterone acetate, reference compound]
- inhibition of type 5 17β-hydroxysteroid dehydrogenase (in words) [2]: inhibit that type 5 enzyme

SMILES: CC12CCC(=O)C=C1C=CC1C2CCC2(C)C(=O)C3CCCC3C12 (stereo not shown) [SA-208-59]
- Inhibition Type V 17B-HSD % Inh. At 3 · 10^−7 (first value in parentheses) ([2]; first of two concentrations, 3 · 10^−7): (72%
- Inhibition Type V 17B-HSD % Inh. At 3 · 10^−7 (second value in parentheses) ([2]; second of two concentrations, 3 · 10^−7): 88) %

SMILES: CC(=O)O[C@]1(C(C)=O)CC[C@H]2[C@@H]3C=C(Cl)C4=CC(=O)CC[C@]4(C)[C@H]3CC[C@@]21C [chlormadinone acetate, reference compound]
- inhibition of type 5 17β-hydroxysteroid dehydrogenase (in words) [2]: inhibit that type 5 enzyme
